According to PMC9368227, “Investigation of Radiotracer Metabolic Stability In Vitro with CYP-Overexpressing Hepatoma Cell Lines” (Cells, 2022):

Columns and labels:
[1] = Radiotracer incubation in buffer only (control, without any cell line), radio-TLC; format: in vitro ADME; conditions: reference incubation without any cell lines
Method: HepG2 cells were cultured in DMEM GlutaMax (Gibco, Paisley, UK) with 10% fetal calf serum (FCS) and with selective antibiotics (penicillin/streptomycin for wildtype, Zeocin (InvivoGen, San Diego, CA, USA) for CYP1A2, and Blasticidin (Gibco, Carlsbad, CA, USA) for CYP2C19 and CYP3A4 cultures). As a negative control, cultures of CHO cultivated in Ham’s F-12 medium (Gibco) with 10% FCS and 2 mM glutamine were added for the radiotracer experiments. Cells were handled under a laminar flow hood (Thermo Scientific^TM Safe 2020, Langenselbold, Germany) and were split once or twice a week by trypsinization. Cell cultures were stored horizontally in a humidified incubator (Heracell240i) at 37 °C and 5% CO2. During the time of experimental work, the utilized cell lines were regularly checked for mycoplasma. Cells were seeded in duplicates into a 96-well plate (CellStar®) with a density of 3 × 10^5 cells/well and cultured until the next day at 37 °C and 5% CO2. Cell density was determined with a cell counter (CASY® Model TT from Schärfe System, Reutlingen, Germany). Before the addition of substrates, cells were washed twice with Krebs–Henseleit buffer (KHB). The HEPES-supplemented Krebs–Henseleit buffer (pH 7.4, KHB) was freshly prepared using HEPES (5.95 g/L), D-glucose (2.0 g/L), magnesium sulfate (0.141 g/L), potassium dihydrogenphosphate (0.16 g/L), potassium chloride (0.35 g/L), sodium chloride (6.9 g/L), calcium chloride dihydrate (0.373 g/L), and sodium bicarbonate (2.1 g/L), followed by adjustment to pH 7.4 with NaOH. […]
(§1) Incubations with radiotracer compounds were conducted, on the one hand, with radioactive ^18F-labeled compounds alone (time dependency) and, on the other hand, in the presence of 50 µM nonradioactive reference (carrier addition). For the investigation of a time-dependent metabolite formation, 2 µL aliquots were withdrawn from the supernatant, directly spotted onto the TLC plate, and analyzed as described above. […]

HepG2 CYP1A2 = assay: Radiotracer metabolic stability, CYP1A2-overexpressing HepG2 cells; format: in vitro ADME, human; conditions: HepG2 CYP1A2, up to 2 h; radio-TLC
Method: (§2) CYP-overexpressing human hepatocellular carcinoma cells (HepG2) were previously generated on the basis of subcloning human CYP1A2 [18], CYP2C19 [20], and CYP3A4 [21] cDNA into a lentiviral expression vector. The cDNA expression in the resulting vector was controlled by the human cytomegalovirus (CMV) promoter. The lentivirus expression vectors were used to produce recombinant lentivirus particles according to standard methods to infect HepG2 cells. Infected cells were selected with 3 µg/mL blasticidin for CYP2C19 and CYP3A4 and 500 µg/mL zeocin for CYP1A2 overexpression 48 h after infection. Within 3–4 weeks, antibiotic-resistant cell colonies were picked to obtain single cell-derived HepG2 clones. For more detailed information on the generation procedure of CYP-overexpressing HepG2 cells, see Steinbrecht et al..
(§3) HepG2 cells were cultured in DMEM GlutaMax (Gibco, Paisley, UK) with 10% fetal calf serum (FCS) and with selective antibiotics (penicillin/streptomycin for wildtype, Zeocin (InvivoGen, San Diego, CA, USA) for CYP1A2, and Blasticidin (Gibco, Carlsbad, CA, USA) for CYP2C19 and CYP3A4 cultures). […] Cell density was determined with a cell counter (CASY® Model TT from Schärfe System, Reutlingen, Germany). […]
as §1
UPLC–MS analyses were performed to verify the degradation behavior of the test compounds and to gain insights into the identity of the formed metabolites. […] Additionally, incubations with the nonradioactive references were carried out with 100 nM or 50 µM (according to the carrier-added samples) and analyzed. UPLC–MS/MS was performed using System 2 (55% isocratic elution for quantification of intact compound, or 25–75% gradient for nonradioactive metabolite analysis). […]

HepG2 CYP2C19 = assay: Radiotracer metabolic stability, CYP2C19-overexpressing HepG2 cells; format: in vitro ADME, human; conditions: radio-TLC
Method: as §2
HepG2 cells were cultured in DMEM GlutaMax (Gibco, Paisley, UK) with 10% fetal calf serum (FCS) and with selective antibiotics (penicillin/streptomycin for wildtype, Zeocin (InvivoGen, San Diego, CA, USA) for CYP1A2, and Blasticidin (Gibco, Carlsbad, CA, USA) for CYP2C19 and CYP3A4 cultures). As a negative control, cultures of CHO cultivated in Ham’s F-12 medium (Gibco) with 10% FCS and 2 mM glutamine were added for the radiotracer experiments. Cells were handled under a laminar flow hood (Thermo Scientific^TM Safe 2020, Langenselbold, Germany) and were split once or twice a week by trypsinization. Cell cultures were stored horizontally in a humidified incubator (Heracell240i) at 37 °C and 5% CO2. During the time of experimental work, the utilized cell lines were regularly checked for mycoplasma. Cells were seeded in duplicates into a 96-well plate (CellStar®) with a density of 3 × 10^5 cells/well and cultured until the next day at 37 °C and 5% CO2. Cell density was determined with a cell counter (CASY® Model TT from Schärfe System, Reutlingen, Germany). Before the addition of substrates, cells were washed twice with Krebs–Henseleit buffer (KHB). The HEPES-supplemented Krebs–Henseleit buffer (pH 7.4, KHB) was freshly prepared using HEPES (5.95 g/L), D-glucose (2.0 g/L), magnesium sulfate (0.141 g/L), potassium dihydrogenphosphate (0.16 g/L), potassium chloride (0.35 g/L), sodium chloride (6.9 g/L), calcium chloride dihydrate (0.373 g/L), and sodium bicarbonate (2.1 g/L), followed by adjustment to pH 7.4 with NaOH. The utilized substances within this study were neither found (see Supplementary Materials, Figure S14) nor reported to be cytotoxic within the utilized concentration range and incubation duration.
Incubations with radiotracer compounds were conducted, on the one hand, with radioactive ^18F-labeled compounds alone (time dependency) and, on the other hand, in the presence of 50 µM nonradioactive reference (carrier addition). For the investigation of a time-dependent metabolite formation, 2 µL aliquots were withdrawn from the supernatant, directly spotted onto the TLC plate, and analyzed as described above. The same procedure was performed for carrier-added samples.
UPLC–MS analyses were performed to verify the degradation behavior of the test compounds and to gain insights into the identity of the formed metabolites. Using radiotracer incubation samples, 40 µL aliquots of the carrier-added incubations were withdrawn followed by addition of 160 µL of ACN and centrifugation (14,000 rpm (18,800–20,800× g), 4 °C, 5 min). Samples were frozen at −20 °C, and activity was allowed to decay before further mass-spectrometric analyses. Additionally, incubations with the nonradioactive references were carried out with 100 nM or 50 µM (according to the carrier-added samples) and analyzed. UPLC–MS/MS was performed using System 2 (55% isocratic elution for quantification of intact compound, or 25–75% gradient for nonradioactive metabolite analysis). The MRM mode was optimized with a solution of respective reference compounds diluted in eluent. […]

HepG2 CYP3A4 = assay: Radiotracer metabolic stability, CYP3A4-overexpressing HepG2 cells; format: in vitro ADME, human; conditions: HepG2 CYP3A4; radio-TLC
Method: as §2
as §3, with “cultures). As a negative control, cultures of CHO cultivated in Ham’s F-12 medium (Gibco) with 10% FCS and 2 mM glutamine were added for the radiotracer experiments.” for “cultures).”

Defluorination without additional enzymes in the incubation buffer (KHB) [1] | Metabolic turnover / stability of radiotracer (in words) (HepG2 CYP1A2) | Metabolic turnover / stability of radiotracer (in words) (HepG2 CYP2C19; HepG2 CYP2C19, up to 2 h) | Summarized percentage of metabolites (HepG2 CYP3A4) | SMILES | Defluorination (HepG2 CYP2C19; 1 h incubation)
to a minor extent | – | – | – | [2H]C([2H])([18F])c1cc(-c2ccc(C)cc2)n(-c2ccc(S(C)(=O)=O)cc2)n1 [[^18F]2, 3-([D2, ^18F]fluoromethyl)-1-[4-(methylsulfonyl)phenyl]-5-(p-tolyl)-1H-pyrazole] | –
– | pronounced slower degradation | pronounced slower degradation | below 3% | Cc1ccc(-c2cc(CC[18F])nn2-c2ccc(S(C)(=O)=O)cc2)cc1 [[^18F]3, 3-([^18F]fluoroethyl)-1-[4-(methylsulfonyl)phenyl]-5-(p-tolyl)-1H-pyrazole] | only noted during incubation with HepG2 CYP2C19
